Source: patent US12194048B2, “Use of pyrrolopyridine derivatives for preventing or treating inflammatory diseases” (VORONOI CO., LTD., priority 2020, dated 2025)

Experiments:
[1] = Metabolic stability (MS) evaluation; assay type: in vitro ADME
NF-κb signaling pathway = assay: Intranuclear movement of p50 and p65 in LPS-stimulated THP-1 cells; assay type: cell-based; conditions: LPS-treated THP-1 cells; FIG. 1b
[2] = Metabolic stability (MS) evaluation; assay type: in vitro ADME; remark: listed apart in the source
[3] = tested on: 2,4,6-trinitrobenzenesulfonic acid (TNBS) induced colitis mouse model; assay: TNBS induced colitis mouse model; assay type: in vivo, male BALB/c mice; conditions: 60 mpk orally once daily
Experimental: In the present experiment, male BALB/c mice (8 weeks old) were used. The experimental animals were subjected to dietary restriction for one day prior to treating with TNBS. Bowel inflammation was induced by administering TNBS (TNBS solution, 1 mg in 0.1 mL 50% ethanol) by submucosal injection in the colon. For the control animals in which inflammation was not induced, only 0.9% NaCl solution without TNBS was administered by submucosal injection in the colon.
The comparative compound, cyclosporine A, was orally administered once daily, and the TNF-α blocker (Enbrel®) was administered intraperitoneally once daily.
During the test, changes in body weight, occult bleeding in stool, and stool consistently were examined every day, and serum was collected on day 5 of the experiment. Bowel tissue was collected at the termination of the experiment to measure the weight of the bowel tissue, degree of polymorphonuclear leukocyte (PMN) deposition and degree of myeloperoxidase (MPO) expression.

JNK1 = biological target: T1, JNK1 (Homo sapiens, UniProt P45983); assay: scanMAX Kinase analysis panel (DiscoverX); assay type: binding; conditions: drug 1 μM in DMSO; from % control
T1 construct: purchased DiscoverX scanMAX Kinase analysis panel
T1 sequence (P45983 whole entry): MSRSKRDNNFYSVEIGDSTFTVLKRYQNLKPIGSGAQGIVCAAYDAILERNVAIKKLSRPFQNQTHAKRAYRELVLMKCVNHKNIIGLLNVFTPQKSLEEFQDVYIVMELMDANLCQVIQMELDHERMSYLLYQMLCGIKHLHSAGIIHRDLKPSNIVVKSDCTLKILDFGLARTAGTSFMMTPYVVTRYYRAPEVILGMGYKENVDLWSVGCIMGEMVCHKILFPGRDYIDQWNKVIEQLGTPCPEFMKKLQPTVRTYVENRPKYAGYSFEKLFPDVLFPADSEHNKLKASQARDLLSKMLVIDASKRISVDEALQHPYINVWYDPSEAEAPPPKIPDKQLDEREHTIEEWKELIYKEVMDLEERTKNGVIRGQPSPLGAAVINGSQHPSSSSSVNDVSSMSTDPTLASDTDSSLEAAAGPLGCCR
Excerpt: (§1) [(Example compound−positive control)/(negative control−positive control)×100]

CSNK1D = biological target: T2, CSNK1D (Homo sapiens, UniProt P48730); assay: scanMAX Kinase analysis panel (DiscoverX); assay type: binding
T2 construct: purchased DiscoverX scanMAX Kinase analysis panel
T2 sequence (P48730 whole entry): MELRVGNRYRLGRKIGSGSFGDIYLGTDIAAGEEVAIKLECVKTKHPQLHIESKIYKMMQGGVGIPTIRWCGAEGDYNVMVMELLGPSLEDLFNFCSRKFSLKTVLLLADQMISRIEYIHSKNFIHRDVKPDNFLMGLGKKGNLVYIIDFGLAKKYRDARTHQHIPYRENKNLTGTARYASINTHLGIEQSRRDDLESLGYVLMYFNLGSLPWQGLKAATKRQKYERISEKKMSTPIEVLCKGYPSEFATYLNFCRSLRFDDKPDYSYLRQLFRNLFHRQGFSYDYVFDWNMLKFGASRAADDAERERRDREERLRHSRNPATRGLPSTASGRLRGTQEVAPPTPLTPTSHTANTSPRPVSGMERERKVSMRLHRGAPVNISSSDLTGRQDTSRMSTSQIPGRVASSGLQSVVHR
Excerpt: as §1

LRRK2(G2019S) = biological target: T3, LRRK2(G2019S) (Homo sapiens, UniProt Q5S007, G2019S); assay: scanMAX Kinase analysis panel (DiscoverX); assay type: binding; conditions: drug 1 μM in DMSO; from % control
T3 construct: purchased DiscoverX scanMAX Kinase analysis panel
Excerpt: as §1

CAMK2D = biological target: T4, CAMK2D (Homo sapiens, UniProt Q13557); assay: scanMAX Kinase analysis panel (DiscoverX); assay type: binding; conditions: drug 1 μM in DMSO; from % control
T4 construct: purchased DiscoverX scanMAX Kinase analysis panel
Excerpt: as §1

LTK = biological target: T5, LTK (Homo sapiens, UniProt P29376); assay: scanMAX Kinase analysis panel (DiscoverX); assay type: binding; conditions: drug 1 μM in DMSO; from % control
T5 construct: purchased DiscoverX scanMAX Kinase analysis panel
Excerpt: as §1

STK39 = biological target: T6, STK39 (Homo sapiens, UniProt Q9UEW8); assay: scanMAX Kinase analysis panel (DiscoverX); assay type: binding; conditions: drug 1 μM in DMSO; from % control
T6 construct: purchased DiscoverX
Excerpt: as §1

HUNK = biological target: T7, HUNK (Homo sapiens, UniProt P57058); assay: scanMAX Kinase analysis panel (DiscoverX); assay type: binding; conditions: drug 1 μM in DMSO; from % control
T7 construct: purchased DiscoverX
Excerpt: as §1

LRRK2 = biological target: T8, LRRK2 (Homo sapiens, UniProt Q5S007); assay: scanMAX Kinase analysis panel (DiscoverX); assay type: binding; conditions: drug 1 μM in DMSO; from % control
T8 construct: purchased DiscoverX
Excerpt: as §1

PHKG1 = biological target: T9, PHKG1 (Homo sapiens, UniProt Q16816); assay: scanMAX Kinase analysis panel (DiscoverX); assay type: binding; conditions: drug 1 μM in DMSO; from % control
T9 construct: purchased DiscoverX scanMAX Kinase analysis panel
T9 sequence (Q16816 whole entry): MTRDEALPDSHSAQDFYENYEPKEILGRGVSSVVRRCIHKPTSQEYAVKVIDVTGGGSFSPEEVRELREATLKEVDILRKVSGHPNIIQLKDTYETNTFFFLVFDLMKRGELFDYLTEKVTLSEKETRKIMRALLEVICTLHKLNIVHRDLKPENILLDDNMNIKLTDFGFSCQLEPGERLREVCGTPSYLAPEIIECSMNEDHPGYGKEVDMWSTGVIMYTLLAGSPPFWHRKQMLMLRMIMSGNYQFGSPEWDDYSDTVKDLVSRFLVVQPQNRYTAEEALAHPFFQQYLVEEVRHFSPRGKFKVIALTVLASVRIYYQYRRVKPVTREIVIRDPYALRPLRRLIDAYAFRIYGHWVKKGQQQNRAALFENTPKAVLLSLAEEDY
Excerpt: as §1

JNK2 = biological target: T10, JNK2 (Homo sapiens, UniProt P45984); assay: scanMAX Kinase analysis panel (DiscoverX); assay type: binding; conditions: drug 1 μM in DMSO; from % control
T10 construct: purchased DiscoverX
Excerpt: as §1

ALK = biological target: T11, ALK (Homo sapiens, UniProt Q9UM73); assay: scanMAX Kinase analysis panel (DiscoverX); assay type: binding; conditions: drug 1 μM in DMSO; from % control
T11 construct: purchased DiscoverX scanMAX Kinase analysis panel
T11 sequence (Q9UM73 19-1620): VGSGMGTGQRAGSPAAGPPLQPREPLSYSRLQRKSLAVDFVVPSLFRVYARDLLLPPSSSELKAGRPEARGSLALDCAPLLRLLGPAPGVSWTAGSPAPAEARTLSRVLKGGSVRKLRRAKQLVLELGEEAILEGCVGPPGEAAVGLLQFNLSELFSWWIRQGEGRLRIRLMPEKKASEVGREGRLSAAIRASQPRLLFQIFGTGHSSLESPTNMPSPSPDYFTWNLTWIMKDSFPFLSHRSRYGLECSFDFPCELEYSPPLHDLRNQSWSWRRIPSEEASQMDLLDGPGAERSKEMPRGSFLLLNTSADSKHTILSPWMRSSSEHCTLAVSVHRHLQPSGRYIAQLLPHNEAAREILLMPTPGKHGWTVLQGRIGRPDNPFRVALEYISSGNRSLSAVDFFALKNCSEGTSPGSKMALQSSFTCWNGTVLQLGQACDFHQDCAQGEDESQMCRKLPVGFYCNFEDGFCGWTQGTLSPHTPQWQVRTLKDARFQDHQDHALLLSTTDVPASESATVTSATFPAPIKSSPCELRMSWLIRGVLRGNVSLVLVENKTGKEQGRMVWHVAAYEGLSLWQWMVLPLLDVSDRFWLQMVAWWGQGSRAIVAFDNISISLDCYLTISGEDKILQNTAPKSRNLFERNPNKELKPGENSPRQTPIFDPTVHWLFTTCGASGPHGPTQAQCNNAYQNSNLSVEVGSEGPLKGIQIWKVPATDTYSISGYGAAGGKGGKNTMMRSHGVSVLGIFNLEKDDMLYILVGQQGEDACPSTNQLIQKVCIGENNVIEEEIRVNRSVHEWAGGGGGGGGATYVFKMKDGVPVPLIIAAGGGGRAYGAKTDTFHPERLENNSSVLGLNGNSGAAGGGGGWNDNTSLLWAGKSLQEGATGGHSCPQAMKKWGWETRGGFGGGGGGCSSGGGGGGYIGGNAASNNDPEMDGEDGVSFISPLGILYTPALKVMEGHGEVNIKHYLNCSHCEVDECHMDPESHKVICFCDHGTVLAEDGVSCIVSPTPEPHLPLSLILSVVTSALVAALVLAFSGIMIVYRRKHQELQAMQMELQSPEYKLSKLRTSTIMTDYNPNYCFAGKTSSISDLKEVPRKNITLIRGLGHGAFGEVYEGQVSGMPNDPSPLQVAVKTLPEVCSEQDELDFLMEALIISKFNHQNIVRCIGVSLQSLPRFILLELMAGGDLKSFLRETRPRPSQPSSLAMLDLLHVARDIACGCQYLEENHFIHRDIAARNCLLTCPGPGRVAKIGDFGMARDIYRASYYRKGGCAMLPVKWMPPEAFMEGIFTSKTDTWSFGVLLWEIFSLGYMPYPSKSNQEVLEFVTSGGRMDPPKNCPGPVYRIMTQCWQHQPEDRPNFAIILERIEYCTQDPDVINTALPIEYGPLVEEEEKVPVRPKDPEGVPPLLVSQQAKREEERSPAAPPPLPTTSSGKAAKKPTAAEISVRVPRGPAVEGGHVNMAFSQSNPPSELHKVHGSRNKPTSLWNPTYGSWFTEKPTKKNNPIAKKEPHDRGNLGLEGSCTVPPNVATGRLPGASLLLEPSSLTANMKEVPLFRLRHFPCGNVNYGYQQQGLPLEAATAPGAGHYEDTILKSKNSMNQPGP
Excerpt: as §1

ABL1-nonphosphorylated = biological target: T12, ABL1-nonphosphorylated (Homo sapiens, UniProt P00519); assay: scanMAX Kinase analysis panel (DiscoverX); assay type: binding; conditions: drug 1 μM in DMSO; from % control
T12 construct: purchased DiscoverX scanMAX Kinase analysis panel
Excerpt: as §1

MAPKAPK2 = biological target: T13, MAPKAPK2 (Homo sapiens, UniProt P49137); assay: scanMAX Kinase analysis panel (DiscoverX); assay type: binding; conditions: drug 1 μM in DMSO; from % control
T13 construct: purchased DiscoverX
T13 sequence (P49137 whole entry): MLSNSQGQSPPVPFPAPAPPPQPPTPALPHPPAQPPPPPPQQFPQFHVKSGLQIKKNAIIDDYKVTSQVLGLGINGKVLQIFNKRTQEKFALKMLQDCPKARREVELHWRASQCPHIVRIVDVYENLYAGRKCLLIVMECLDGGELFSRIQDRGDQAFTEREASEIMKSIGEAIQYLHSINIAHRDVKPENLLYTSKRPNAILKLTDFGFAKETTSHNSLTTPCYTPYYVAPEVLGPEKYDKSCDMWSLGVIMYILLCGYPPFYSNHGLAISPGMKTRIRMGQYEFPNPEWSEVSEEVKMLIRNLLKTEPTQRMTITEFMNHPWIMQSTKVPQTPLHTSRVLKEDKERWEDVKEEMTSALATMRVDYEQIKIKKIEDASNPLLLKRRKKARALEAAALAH
Excerpt: as §1

INSR = biological target: T14, INSR (Homo sapiens, UniProt P06213); assay: scanMAX Kinase analysis panel (DiscoverX); assay type: binding; conditions: drug 1 μM in DMSO; from % control
T14 construct: purchased DiscoverX
Excerpt: as §1

STK33 = biological target: T15, STK33 (Homo sapiens, UniProt Q9BYT3); assay: scanMAX Kinase analysis panel (DiscoverX); assay type: binding; conditions: drug 1 μM in DMSO; from % control
T15 construct: purchased DiscoverX scanMAX Kinase analysis panel
T15 sequence (Q9BYT3 whole entry): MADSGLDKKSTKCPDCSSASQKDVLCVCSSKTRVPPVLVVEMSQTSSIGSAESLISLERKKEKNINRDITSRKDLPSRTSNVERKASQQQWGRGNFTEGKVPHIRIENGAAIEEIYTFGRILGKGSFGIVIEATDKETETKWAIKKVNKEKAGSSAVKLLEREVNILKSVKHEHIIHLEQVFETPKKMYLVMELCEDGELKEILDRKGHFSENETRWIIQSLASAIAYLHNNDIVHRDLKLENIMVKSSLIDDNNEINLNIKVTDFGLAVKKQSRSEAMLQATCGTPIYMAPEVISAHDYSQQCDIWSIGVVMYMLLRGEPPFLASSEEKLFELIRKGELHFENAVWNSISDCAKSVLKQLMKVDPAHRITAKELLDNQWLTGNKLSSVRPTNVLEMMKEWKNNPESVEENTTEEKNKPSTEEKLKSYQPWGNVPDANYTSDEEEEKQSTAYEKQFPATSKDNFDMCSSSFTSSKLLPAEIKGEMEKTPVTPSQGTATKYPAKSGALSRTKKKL
Excerpt: as §1

PLK4 = biological target: T16, PLK4 (Homo sapiens, UniProt O00444); assay: scanMAX Kinase analysis panel (DiscoverX); assay type: binding; conditions: drug 1 μM in DMSO; from % control
T16 construct: purchased DiscoverX
Excerpt: as §1

MYLK = biological target: T17, MYLK (Homo sapiens, UniProt Q15746); assay: scanMAX Kinase analysis panel (DiscoverX); assay type: binding; conditions: drug 1 μM in DMSO; from % control
T17 construct: purchased DiscoverX scanMAX Kinase analysis panel
Excerpt: as §1

ALK(C1156Y) = biological target: T18, ALK(C1156Y) (Homo sapiens, UniProt Q9UM73, C1156Y); assay: scanMAX Kinase analysis panel (DiscoverX); assay type: binding; conditions: drug 1 μM in DMSO; from % control
T18 construct: purchased DiscoverX scanMAX Kinase analysis panel
T18 sequence (Q9UM73 19-1620 C1156Y): as the sequence (Q9UM73 19-1620) above, with C1138Y counted along it
Excerpt: as §1

PHKG2 = biological target: T19, PHKG2 (Homo sapiens, UniProt P15735); assay: scanMAX Kinase analysis panel (DiscoverX); assay type: binding; conditions: drug 1 μM in DMSO; from % control
T19 construct: purchased DiscoverX scanMAX Kinase analysis panel
Excerpt: as §1

ERK5 = biological target: T20, ERK5 (Homo sapiens, UniProt Q13164); assay: scanMAX Kinase analysis panel (DiscoverX); assay type: binding; conditions: drug 1 μM in DMSO; from % control
T20 construct: purchased DiscoverX
Excerpt: as §1

PAK2 = biological target: T21, PAK2 (Homo sapiens, UniProt Q13177); assay: scanMAX Kinase analysis panel (DiscoverX); assay type: binding; conditions: drug 1 μM in DMSO; from % control
T21 construct: purchased DiscoverX scanMAX Kinase analysis panel
Excerpt: as §1

ALK(L1196M) = biological target: T22, ALK(L1196M) (Homo sapiens, UniProt Q9UM73, L1196M); assay: scanMAX Kinase analysis panel (DiscoverX); assay type: binding; conditions: drug 1 μM in DMSO; from % control
T22 construct: purchased DiscoverX scanMAX Kinase analysis panel
T22 sequence (Q9UM73 19-1620 L1196M): as the sequence (Q9UM73 19-1620) above, with L1178M counted along it
Excerpt: as §1

CSNK1A1 = biological target: T23, CSNK1A1 (Homo sapiens, UniProt P48729); assay: scanMAX Kinase analysis panel (DiscoverX); assay type: binding; conditions: drug 1 μM in DMSO; from % control
T23 construct: purchased DiscoverX scanMAX Kinase analysis panel
Excerpt: as §1

JNK3 = biological target: T24, JNK3 (Homo sapiens, UniProt P53779); assay: scanMAX Kinase analysis panel (DiscoverX); assay type: binding; conditions: drug 1 μM in DMSO; from % control
T24 construct: purchased DiscoverX
Excerpt: as §1

GAK = biological target: T25, GAK (Homo sapiens, UniProt O14976); assay: scanMAX Kinase analysis panel (DiscoverX); assay type: binding; conditions: drug 1 μM in DMSO; from % control
T25 construct: purchased DiscoverX scanMAX Kinase analysis panel
Excerpt: as §1

CHEK2 = biological target: T26, CHEK2 (Homo sapiens, UniProt O96017); assay: scanMAX Kinase analysis panel (DiscoverX); assay type: binding; conditions: drug 1 μM in DMSO; from % control
T26 construct: purchased DiscoverX scanMAX Kinase analysis panel
Excerpt: as §1

CAMKK2 = biological target: T27, CAMKK2 (Homo sapiens, UniProt Q96RR4); assay: scanMAX Kinase analysis panel (DiscoverX); assay type: binding; conditions: drug 1 μM in DMSO; from % control
T27 construct: purchased DiscoverX scanMAX Kinase analysis panel
Excerpt: as §1

[4] = biological target: T28, JAK1(JH2domain-pseudokinase) (Homo sapiens, UniProt P23458); assay: scanMAX Kinase analysis panel (DiscoverX); assay type: binding; conditions: drug 1 μM in DMSO; from % control
T28 construct: JAK1 (JH2domain-pseudokinase); purchased DiscoverX
Excerpt: as §1

hERG = hERG (Homo sapiens, UniProt Q12809); assay: hERG analysis
Chain of hERG (Q12809 whole entry): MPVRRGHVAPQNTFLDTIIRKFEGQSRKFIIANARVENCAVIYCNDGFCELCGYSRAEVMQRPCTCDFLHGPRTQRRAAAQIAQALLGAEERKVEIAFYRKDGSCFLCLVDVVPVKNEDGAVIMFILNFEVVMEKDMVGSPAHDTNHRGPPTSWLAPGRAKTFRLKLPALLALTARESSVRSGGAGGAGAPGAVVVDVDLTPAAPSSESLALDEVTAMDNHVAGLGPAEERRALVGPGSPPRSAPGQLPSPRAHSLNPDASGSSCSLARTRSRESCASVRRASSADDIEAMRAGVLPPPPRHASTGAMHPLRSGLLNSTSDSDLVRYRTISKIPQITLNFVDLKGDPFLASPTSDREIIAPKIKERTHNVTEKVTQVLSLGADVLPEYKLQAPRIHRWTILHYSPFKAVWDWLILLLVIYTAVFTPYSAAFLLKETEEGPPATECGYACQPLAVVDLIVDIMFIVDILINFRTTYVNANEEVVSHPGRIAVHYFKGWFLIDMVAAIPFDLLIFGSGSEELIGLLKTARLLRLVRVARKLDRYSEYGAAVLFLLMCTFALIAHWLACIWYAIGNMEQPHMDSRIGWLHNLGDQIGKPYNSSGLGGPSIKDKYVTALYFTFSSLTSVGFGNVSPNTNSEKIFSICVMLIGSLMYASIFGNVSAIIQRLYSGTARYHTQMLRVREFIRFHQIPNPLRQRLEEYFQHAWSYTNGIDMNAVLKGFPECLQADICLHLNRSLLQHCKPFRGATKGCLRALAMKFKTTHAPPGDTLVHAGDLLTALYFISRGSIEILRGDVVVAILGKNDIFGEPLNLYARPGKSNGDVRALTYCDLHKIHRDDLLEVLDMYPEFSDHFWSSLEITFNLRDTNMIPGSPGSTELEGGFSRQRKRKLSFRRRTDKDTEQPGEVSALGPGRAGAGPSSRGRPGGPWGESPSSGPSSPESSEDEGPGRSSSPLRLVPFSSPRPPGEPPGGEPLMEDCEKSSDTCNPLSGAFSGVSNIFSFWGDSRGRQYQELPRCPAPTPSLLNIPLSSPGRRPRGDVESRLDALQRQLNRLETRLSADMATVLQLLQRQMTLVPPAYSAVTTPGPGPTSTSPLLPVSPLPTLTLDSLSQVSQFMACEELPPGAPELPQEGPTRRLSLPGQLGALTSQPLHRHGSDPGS

[5] = Metabolic stability (MS) evaluation; assay type: in vitro ADME; remark: listed apart in the source

MS (1 μM) (% remaining during 30 min) Dog [1]: 96%
MS (1 μM) (% remaining during 30 min) Rat [2]: 20%
inhibition at 1 µM (JNK1): ≥ 59%
inhibition at 1 µM (CSNK1D): ≥ 59%
inhibition at 1 µM (LRRK2(G2019S)): ≥ 59%
inhibition at 1 µM (CAMK2D): 40 to 59%
inhibition at 1 µM (LTK): ≥ 59%
inhibition at 1 µM (STK39): 40 to 59%
inhibition at 1 µM (HUNK): 40 to 59%
inhibition at 1 µM (LRRK2): 40 to 59%
inhibition at 1 µM (PHKG1): ≥ 59%
inhibition at 1 µM (JNK2): 40 to 59%
inhibition at 1 µM (ALK): ≥ 59%
inhibition at 1 µM (ABL1-nonphosphorylated): 40 to 59%
inhibition at 1 µM (MAPKAPK2): 40 to 59%
inhibition at 1 µM (INSR): 40 to 59%
inhibition at 1 µM (STK33): ≥ 59%
inhibition at 1 µM (PLK4): 40 to 59%
inhibition at 1 µM (MYLK): ≥ 59%
inhibition at 1 µM (ALK(C1156Y)): ≥ 59%
inhibition at 1 µM (PHKG2): ≥ 59%
inhibition at 1 µM (ERK5): 40 to 59%
inhibition at 1 µM (PAK2): ≥ 59%
inhibition at 1 µM (ALK(L1196M)): ≥ 59%
inhibition at 1 µM (CSNK1A1): 40 to 59%
inhibition at 1 µM (JNK3): 40 to 59%
inhibition at 1 µM (GAK): ≥ 59%
inhibition at 1 µM (CHEK2): 40 to 59%
inhibition at 1 µM (CAMKK2): 40 to 59%
inhibition at 1 µM [4]: 40 to 59%
MS (1 μM) (% remaining during 30 min) Mouse [5]: 40%
SMILES: CCNc1cc(Nc2ccc(C(=O)N3CCC(N4CCOCC4)CC3)cc2OC)nc2[nH]cc(C(F)(F)F)c12 [Compound 1, (4-((4-(ethylamino)-3-(trifluoromethyl)-1H-pyrrolo[2,3-b]pyridine-6-yl)amino)-3-methoxyphenyl)(4-morpholinopiperidine-1-yl)methanone]
intranuclear movement of p50 (NF-κb signaling pathway): effectively inhibited
intranuclear movement of p65 (NF-κb signaling pathway): effectively inhibited
weight of bowel tissue ([3]; FIG. 6): weight reduction
thickness of lamina propria ([3]; H&E, FIG. 5): decreased in thickness
MPO levels ([3]; bowel tissue, vs control not treated, FIG. 6): lower
IC50 (hERG): 4.39 µM
cardiac toxicity (hERG, in words) (hERG): excellent safety in terms of cardiac toxicity
